Test [1] deals with T1, Adrenergic receptor alpha-2 (Rattus norvegicus, UniProt P22086+P19328+P22909).
T1 sequence (P22086 whole entry): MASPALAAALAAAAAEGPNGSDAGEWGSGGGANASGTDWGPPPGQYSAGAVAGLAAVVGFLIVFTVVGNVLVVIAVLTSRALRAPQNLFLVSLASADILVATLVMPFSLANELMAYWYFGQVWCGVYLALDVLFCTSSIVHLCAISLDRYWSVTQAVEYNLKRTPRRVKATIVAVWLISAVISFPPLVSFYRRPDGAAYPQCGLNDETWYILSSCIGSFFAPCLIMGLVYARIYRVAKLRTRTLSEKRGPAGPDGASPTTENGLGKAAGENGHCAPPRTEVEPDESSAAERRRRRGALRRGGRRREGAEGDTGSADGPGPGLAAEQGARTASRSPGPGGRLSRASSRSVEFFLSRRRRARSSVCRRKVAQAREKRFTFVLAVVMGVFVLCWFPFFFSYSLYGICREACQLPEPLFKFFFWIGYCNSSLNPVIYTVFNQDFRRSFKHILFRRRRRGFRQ
T1 sequence (P19328 whole entry): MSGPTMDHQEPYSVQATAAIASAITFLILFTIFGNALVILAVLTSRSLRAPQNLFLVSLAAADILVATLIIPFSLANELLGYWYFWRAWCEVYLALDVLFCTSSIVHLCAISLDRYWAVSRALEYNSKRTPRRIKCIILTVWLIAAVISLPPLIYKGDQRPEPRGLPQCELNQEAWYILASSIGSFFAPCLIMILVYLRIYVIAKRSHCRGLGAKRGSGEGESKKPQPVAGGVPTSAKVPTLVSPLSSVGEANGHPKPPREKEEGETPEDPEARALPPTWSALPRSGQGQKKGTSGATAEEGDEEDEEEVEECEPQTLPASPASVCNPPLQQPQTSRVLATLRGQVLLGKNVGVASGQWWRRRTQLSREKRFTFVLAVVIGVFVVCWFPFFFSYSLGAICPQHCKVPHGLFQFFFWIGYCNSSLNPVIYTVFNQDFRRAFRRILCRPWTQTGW
T1 sequence (P22909 whole entry): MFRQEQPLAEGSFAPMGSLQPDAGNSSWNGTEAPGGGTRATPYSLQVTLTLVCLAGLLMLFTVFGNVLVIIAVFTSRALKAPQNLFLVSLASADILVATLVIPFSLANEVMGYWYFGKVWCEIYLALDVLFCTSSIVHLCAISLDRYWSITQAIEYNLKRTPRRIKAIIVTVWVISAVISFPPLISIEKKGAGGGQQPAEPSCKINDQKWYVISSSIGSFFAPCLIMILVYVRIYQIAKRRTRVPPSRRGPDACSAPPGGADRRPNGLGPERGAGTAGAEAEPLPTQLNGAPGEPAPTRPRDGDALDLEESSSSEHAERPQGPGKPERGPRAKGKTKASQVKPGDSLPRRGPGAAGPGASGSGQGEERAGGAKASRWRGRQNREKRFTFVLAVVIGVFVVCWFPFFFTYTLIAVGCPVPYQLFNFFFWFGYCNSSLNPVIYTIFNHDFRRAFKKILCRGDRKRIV
As to the kind of experiment: Evaluated for its presynaptic Alpha-2 adrenergic receptor antagonistic activity against rat vas deferens using clonidine as the control expressed as slope. Format: functional, tissue-based.

In test [2] the target is T2, Adrenergic receptor alpha-1 (Rattus norvegicus, UniProt P15823+P23944+P43140).
T2 sequence (P15823 whole entry): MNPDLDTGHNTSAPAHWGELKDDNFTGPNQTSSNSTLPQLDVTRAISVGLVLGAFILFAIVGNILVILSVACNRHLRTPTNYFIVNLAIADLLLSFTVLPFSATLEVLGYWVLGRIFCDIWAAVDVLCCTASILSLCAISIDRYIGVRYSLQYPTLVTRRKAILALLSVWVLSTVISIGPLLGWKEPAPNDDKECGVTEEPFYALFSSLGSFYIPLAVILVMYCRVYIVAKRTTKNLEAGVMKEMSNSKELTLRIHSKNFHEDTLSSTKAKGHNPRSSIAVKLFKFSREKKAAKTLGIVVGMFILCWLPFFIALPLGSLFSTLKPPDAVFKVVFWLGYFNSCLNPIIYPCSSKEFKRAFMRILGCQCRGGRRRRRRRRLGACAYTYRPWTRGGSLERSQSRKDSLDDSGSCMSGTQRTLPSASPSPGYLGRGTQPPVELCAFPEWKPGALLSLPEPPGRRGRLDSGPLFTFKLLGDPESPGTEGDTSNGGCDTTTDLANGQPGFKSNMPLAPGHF
T2 sequence (P23944 whole entry): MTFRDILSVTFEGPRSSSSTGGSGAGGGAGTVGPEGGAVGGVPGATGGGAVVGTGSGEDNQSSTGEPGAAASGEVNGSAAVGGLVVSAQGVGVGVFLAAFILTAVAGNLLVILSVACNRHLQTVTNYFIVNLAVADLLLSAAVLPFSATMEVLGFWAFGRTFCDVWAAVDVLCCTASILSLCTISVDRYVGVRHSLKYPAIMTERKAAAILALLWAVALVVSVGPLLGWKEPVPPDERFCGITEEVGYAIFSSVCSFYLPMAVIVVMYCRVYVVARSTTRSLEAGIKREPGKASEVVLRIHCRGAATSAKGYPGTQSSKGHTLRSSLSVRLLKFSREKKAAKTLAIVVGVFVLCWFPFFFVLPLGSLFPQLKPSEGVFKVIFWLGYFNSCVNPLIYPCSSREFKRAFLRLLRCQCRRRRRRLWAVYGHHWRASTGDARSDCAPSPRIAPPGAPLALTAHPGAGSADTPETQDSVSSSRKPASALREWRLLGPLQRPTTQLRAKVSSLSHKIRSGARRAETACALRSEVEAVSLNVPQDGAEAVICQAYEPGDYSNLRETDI
T2 sequence (P43140 whole entry): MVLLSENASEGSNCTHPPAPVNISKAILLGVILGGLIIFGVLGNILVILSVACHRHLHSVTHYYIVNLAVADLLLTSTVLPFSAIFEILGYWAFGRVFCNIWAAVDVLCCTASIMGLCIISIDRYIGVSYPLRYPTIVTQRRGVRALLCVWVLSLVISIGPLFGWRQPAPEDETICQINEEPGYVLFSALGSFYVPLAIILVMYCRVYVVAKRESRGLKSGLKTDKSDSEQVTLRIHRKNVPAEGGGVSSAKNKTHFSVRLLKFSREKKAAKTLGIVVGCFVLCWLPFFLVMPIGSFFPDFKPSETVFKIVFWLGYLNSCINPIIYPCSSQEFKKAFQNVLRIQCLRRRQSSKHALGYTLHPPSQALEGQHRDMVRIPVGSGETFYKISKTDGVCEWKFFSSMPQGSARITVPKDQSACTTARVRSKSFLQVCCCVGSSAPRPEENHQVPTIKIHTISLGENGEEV
As to the kind of experiment: In vitro binding affinity at Alpha-1 adrenergic receptor by radioligand binding assay using [3H]prazosin. Type of test: protein assay.

Test [3] has as its target T1, Adrenergic receptor alpha-2. In words: In vitro binding affinity at Alpha-2 adrenergic receptor in rat cortex by radioligand binding assay using [3H]rauwolscine.
The species entered for a further test is Rattus norvegicus. In words: Concentration required for its norepinephrine reuptake inhibitory activity in synaptosomal rat hyphalamic preparations. Type of test: functional.

Among the data in ChEMBL document CHEMBL1127896, “Synthesis and pharmacological characterization of ABT-200: a putative novel antidepressant combining potent -2 antagonism with moderate NE uptake inhibition” (Bioorg Med Chem Lett, 1994) are pA2, Ki and IC50 values, retold here.

`c1ccc([C@@H]2CCN(C[C@@H]3CCCc4c3ccc3c4OCO3)C2)cc1`: the pA2 – broadly, the negative logarithm of the molar antagonist concentration that doubles the agonist concentration needed for the same response – in test [1] was determined as 7.91. Besides, the inhibition constant (Ki) – broadly, a dissociation constant, usually derived from enzyme kinetics or from competition with a known ligand – in test [2] amounted to 0.0474 µM; in test [3] it was 0.0005 µM. Besides, the concentration for half-maximal inhibition (IC50) – broadly, the midpoint of a concentration-inhibition curve – in the test filed under Rattus norvegicus (Rattus norvegicus) was determined as 1.7 µM.

For the molecule `c1ccc([C@H]2CCN(C[C@@H]3CCCc4c3ccc3c4OCO3)C2)cc1`, in test [1], the pA2 amounted to 7.78. In addition, the inhibitory constant (Ki) in test [2] stood at 0.106 µM; in test [3], 0.000428 µM. This molecule also showed a 50% inhibitory concentration (IC50) in the test listed under Rattus norvegicus of 3.11 µM.

Take `c1ccc([C@@H]2CCN(C[C@H]3CCCc4c3ccc3c4OCO3)C2)cc1`: the pA2 in test [1] is recorded as 6.78. Also, the values for the inhibition constant (Ki) in test [2] and in test [3] were 0.104 µM and 0.00208 µM, respectively. The same molecule came in with an IC50 in the test filed under Rattus norvegicus (Rattus norvegicus) of 0.636 µM.

Turning to `c1ccc([C@H]2CCN(C[C@H]3CCCc4c3ccc3c4OCO3)C2)cc1`, in test [1], the pA2 stood at 6.65. Further, the values for the Ki in test [2] and in test [3] were 0.189 µM and 0.00456 µM, respectively. In addition, 1.45 µM corresponded to half-maximal inhibition in the test listed under Rattus norvegicus (Rattus norvegicus) (IC50).

In test [1], `c1ccc(C2CCN(CC3CCCc4c3ccc3c4OCO3)C2)cc1` (stereo in doubt; 1a/b) returned a pA2 of 7.68. Besides, the inhibition constant (Ki) worked out at 0.112 µM in test [2] and 0.00123 µM in test [3]. The same molecule gave a concentration for half-maximal inhibition (IC50) in the test filed under Rattus norvegicus of 0.841 µM.

Take `c1ccc(C2CCN(CC3CCCc4c3ccc3c4OCO3)C2)cc1` (stereo in doubt; 6a/b): the pA2 in test [1] is recorded as 7.84. The Ki amounted to 0.0759 µM in test [2] and 0.000708 µM in test [3]. Moreover, the IC50 in the test listed under Rattus norvegicus came to 1.32 µM.

As for `CN(C)CCCN1c2ccccc2CCc2ccccc21` [IMIPRAMINE], the Ki in test [3] turned out to be 0.255 µM. The same molecule had an IC50 in the test filed under Rattus norvegicus (Rattus norvegicus) of 0.105 µM.
